Laboratory results from ChEMBL document CHEMBL3425474, “Biphenyl-ethyl-pyrrolidine derivatives as histamine h3 receptor modulators for the treatment of cognitive disorders” (ACS Med Chem Lett, 2015).

molecular target: Histamine H3 receptor (Homo sapiens, UniProt Q9Y5N1); assay: Modulation of human histamine H3 receptor expressed in HEK293 cells assessed as change in forskolin-stimulated cAMP level after 1 hr by HTRF assay; format: functional, cell-based
Sequence (Q9Y5N1 whole entry): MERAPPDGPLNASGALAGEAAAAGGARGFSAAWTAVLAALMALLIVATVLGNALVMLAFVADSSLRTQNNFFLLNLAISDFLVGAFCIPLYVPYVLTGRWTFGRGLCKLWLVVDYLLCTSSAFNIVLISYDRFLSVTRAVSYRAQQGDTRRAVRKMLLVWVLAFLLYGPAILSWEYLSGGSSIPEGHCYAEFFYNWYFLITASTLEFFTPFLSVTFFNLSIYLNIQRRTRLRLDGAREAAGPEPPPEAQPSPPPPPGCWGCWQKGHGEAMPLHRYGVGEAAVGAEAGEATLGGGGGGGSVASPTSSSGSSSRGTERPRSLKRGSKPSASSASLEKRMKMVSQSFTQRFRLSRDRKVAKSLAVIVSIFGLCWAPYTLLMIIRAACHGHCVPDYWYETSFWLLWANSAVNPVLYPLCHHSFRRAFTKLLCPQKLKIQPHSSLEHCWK

| Structure (SMILES) | IC50 |
| --- | --- |
| C[C@@H]1CCCN1CCc1ccc(-c2ccc(C3(NC(=O)CCCC(=O)O)CCCC3)cc2)cc1 | 2.1 nM |
| COC(=O)CCCC(=O)NC1(c2ccc(-c3ccc(CCN4CCC[C@H]4C)cc3)cc2)CCCC1 | 15 nM |
| C[C@@H](C(=O)NCCc1ccc(-c2ccc(CCN3CCC[C@H]3C)cc2)cc1)C(=O)OC(C)(C)C | 2.1 nM |
| C[C@@H]1CCCN1CCc1ccc(-c2ccc(NC(=O)CCC(=O)O)cc2)cc1 | 2.5 nM |

Now those with a lower IC50, led by results:

| IC50 | Structure (SMILES) |
| --- | --- |
| 1.9 nM | COC(=O)CC(=O)NC1(c2ccc(-c3ccc(CCN4CCC[C@H]4C)cc3)cc2)CCCC1 |
| 1.2 nM | COC(=O)C(C)(C)C(=O)Nc1ccc(-c2ccc(CCN3CCC[C@H]3C)cc2)cc1 |
| 0.99 nM | COC(=O)CC(=O)NCCc1ccc(-c2ccc(CCN3CCC[C@H]3C)cc2)cc1 |
| 0.95 nM | C[C@@H]1CCCN1CCc1ccc(-c2ccc(CCNC(=O)C(C)(C)C(=O)OC(C)(C)C)cc2)cc1 |
